Assay results published in patent US11104648B2, “Pyrazole derivative” (Zhejiang Research Institute of Chemical Industry Co., Ltd., priority 2018, dated 2021).
Read-outs that look alike come from different tables or passages of the source.

Assays:
Format in all cases: in vivo
[1] = test system: Eggs of Tetranychus Cinnabarinus; assay: Activity assay of eggs of Tetranychus cinnabarinus (spray method, ovicidal); settings: Tetranychus cinnabarinus, spray, read-out: ovicidal activity; for pest or weed control at 5 µg/mL: concentration 5 mg/L, non-incubated eggs counted as dead; for pest or weed control at 2 µg/mL: concentration 2 mg/L
Outline: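 Ovicidal spray test: compound dissolved in DMF, diluted with 1‰ Tween 80 (DMF ≤10%), sprayed on eggs laid during 24 h by females on broad bean leaves. Culture at 26±2° C, 70–80% RH, 16 h photoperiod; non-hatched eggs scored as dead when blank control hatched; three repeats.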

[2] = test system: adult Tetranychus cinnabarinus; assay: Activity assay of adult Tetranychus cinnabarinus (whole-plant spray on bean seedlings); settings: 48 h, read-out: adult mite-killing activity; for pest or weed control at 2.5 µg/mL: concentration 2.5 mg/L; for pest or weed control at 1.25 µg/mL: concentration 1.25 mg/L
Outline: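 Whole plants sprayed after adult mite inoculation and initial census, using compound dissolved in DMF and made up with 1‰ Tween 80 water (DMF not above 10%). Mortality derived from survivor counts at 48 h after treatment. Each treatment run in triplicate.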

[3] = test system: Tetranychus cinnabarinus Nymphs; assay: Activity assay of Tetranychus cinnabarinus nymphs (spray on broad bean leaves)
Outline: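 Mortality, judged as no response to gentle touch, was scored 48 h after spraying Tetranychus cinnabarinus nymphs on broad bean leaves (eggs from females removed after 24 h). Test solutions: DMF-dissolved compound, ≤10% DMF, in 1‰ Tween 80; 26±2° C., 70%–80% RH, 16 h light; triplicate, blank control.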

[4] = 48 h, concentration 2.5 mg/L, read-out: nymph-killing activity
[5] = 48 h, concentration 2 mg/L, read-out: nymph-killing activity

| Compound | pest or weed control at 5 µg/mL [1] [%] | pest or weed control at 2.5 µg/mL [2] [%] | pest or weed control at 2.5 µg/mL [3, 4] [%] | pest or weed control at 2.5 µg/mL ([3]; concentration 2.5 mg/L, 48 h, read-out: nymph-killing activity) [%] | pest or weed control at 2 µg/mL [1] [%] | pest or weed control at 1.25 µg/mL [2] [%] | pest or weed control at 2 µg/mL [3, 5] [%] |
| --- | --- | --- | --- | --- | --- | --- | --- |
| CCn1nc(C)c(Cl)c1/C(OCOC(=O)c1ccccc1)=C(\C#N)c1ccc(C(C)(C)C)cc1 [Compound 314] | ≥ 90 | ≥ 90 | ≥ 95 |  |  |  |  |
| CCn1nc(C)c(Cl)c1/C(OCOC(=O)Cc1ccccc1)=C(\C#N)c1ccc(C(C)(C)C)cc1 [Compound 315] | ≥ 90 | ≥ 90 |  | ≥ 95 |  |  |  |
| CCn1nc(C)c(Cl)c1/C(OCOC(=O)C(C)(C)CC)=C(\C#N)c1ccc(C(C)(C)C)cc1 [Compound 316] | ≥ 90 | ≥ 90 | ≥ 95 |  |  |  |  |
| C=CC(=O)OCO/C(=C(/C#N)c1ccc(C(C)(C)C)cc1)c1c(Cl)c(C)nn1CC [Compound 317] | ≥ 90 | ≥ 90 | ≥ 95 |  |  |  |  |
| CCn1nc(C)c(Cl)c1/C(OC(C)OC(C)=O)=C(\C#N)c1ccc(C(C)(C)C)cc1 (stereo not drawn) [Compound 326] | ≥ 90 | ≥ 90 | ≥ 95 |  | ≥ 90 | ≥ 90 | ≥ 90 |
| CCC(=O)OC(C)O/C(=C(/C#N)c1ccc(C(C)(C)C)cc1)c1c(Cl)c(C)nn1CC (stereo not drawn) [Compound 327] | ≥ 90 | ≥ 90 | ≥ 95 |  | ≥ 90 | ≥ 90 | ≥ 90 |
| CCCC(=O)OC(C)O/C(=C(/C#N)c1ccc(C(C)(C)C)cc1)c1c(Cl)c(C)nn1CC (stereo not drawn) [Compound 328] | ≥ 90 | ≥ 90 | ≥ 95 |  |  |  |  |
| CCn1nc(C)c(Cl)c1/C(OC(C)OC(=O)C(C)C)=C(\C#N)c1ccc(C(C)(C)C)cc1 (stereo not drawn) [Compound 329] | ≥ 90 | ≥ 90 | ≥ 95 |  |  |  |  |
| CCn1nc(C)c(Cl)c1/C(OC(C)OC(=O)C(C)(C)C)=C(\C#N)c1ccc(C(C)(C)C)cc1 (stereo not drawn) [Compound 330] | ≥ 90 | ≥ 90 | ≥ 95 |  |  |  |  |
| CCCCC(=O)OC(C)O/C(=C(/C#N)c1ccc(C(C)(C)C)cc1)c1c(Cl)c(C)nn1CC (stereo not drawn) [Compound 331] | ≥ 90 | ≥ 90 | ≥ 95 |  |  |  |  |
| CCn1nc(C)c(Cl)c1/C(OC(C)OC(=O)CC(C)C)=C(\C#N)c1ccc(C(C)(C)C)cc1 (stereo not drawn) [Compound 332] | ≥ 90 | ≥ 90 | ≥ 95 |  |  |  |  |
| CCn1nc(C)c(Cl)c1/C(OC(C)OC(=O)COC)=C(\C#N)c1ccc(C(C)(C)C)cc1 (stereo not drawn) [Compound 333] | ≥ 90 | ≥ 90 | ≥ 95 |  |  |  |  |
| CCn1nc(C)c(Cl)c1/C(OC(C)OC(=O)C1CC1)=C(\C#N)c1ccc(C(C)(C)C)cc1 (stereo not drawn) [Compound 334] | ≥ 90 | ≥ 90 | ≥ 95 |  |  |  |  |
| CCn1nc(C)c(Cl)c1/C(OC(C)OC(=O)CSC)=C(\C#N)c1ccc(C(C)(C)C)cc1 (stereo not drawn) [Compound 335] | ≥ 90 | ≥ 90 | ≥ 95 |  |  |  |  |
| CCn1nc(C)c(Cl)c1/C(OC(C)OC(=O)C1CCCCC1)=C(\C#N)c1ccc(C(C)(C)C)cc1 (stereo not drawn) [Compound 336] | ≥ 90 | ≥ 90 | ≥ 95 |  |  |  |  |
